Measured values: PMC10529594, “Strasseriolides display in vitro and in vivo activity against trypanosomal parasites and cause morphological and size defects in Trypanosoma cruzi” (PLOS Neglected Tropical Diseases, 2023)

Experiments:
T. cruzi trypomastigotes = test: T. cruzi trypomastigote viability / rate of action assay (CellTiter-Glo bioluminescence); type: cell-based, Trypanosoma cruzi; details: for EC50: Trypanosoma cruzi; for EC90/EC50 / Hill slope: Trypomastigotes
Method: Tulahuen T. cruzi trypomastigotes were recovered 6 days post infection from the supernatant of harvested infected L6 cells cultures after 3 hours at 37°C. 90 μL of parasite culture at a density of 5 × 10^6 cells in RPMI 1640 media were dispensed into 96 Nunc flat bottom assay plates containing 10 μL of each compound.
Parasite viability was assessed upon 24, 48 and 72 hour incubation at 37°C in 5% CO2 by adding 50 μL of CellTiter-Glo viability reagent to white 96-well microplates. After signal stabilization, bioluminescence was read. Compound concentrations ranged from 0.1 μM to 50 μM and final maximal DMSO percentage in the well was 0.05%. Results were normalized to […] control columns in each plate.

[1] = system: intracellular T. cruzi amastigotes; test: Rate of kill, intracellular T. cruzi amastigotes (CPRG, 96-well); type: cell-based, Trypanosoma cruzi; details: Amastigotes, 24 h
Method: For rate of kill experiments, in vitro activity against intracellular T. cruzi amastigotes was analyzed at early time points: 24, 48 and 72 hours. The standard colorimetric transgenic assay was established in a 96-well format, with serial dilutions of compounds and 0.05% as the final maximal DMSO percentage per well. In these experiments L6 host cells were included as negative controls and CPRG conversion was monitored at 585 nm using a Versamax microplate reader (Molecular devices).

SMILES: C/C1=C\[C@H](C)C(=O)C[C@@H](O)/C(C)=C/[C@H](C)C[C@@H](C)CC[C@@H]([C@@H](C)C(=O)O)OC(=O)[C@@H](C)C1 [Strasseriolide C, strasseriolide C]
- RLU Average, trypomastigote viability (T. cruzi trypomastigotes; 24 h, 0.0976562 µM, untreated 165925): 163790 RLU
- RLU Average, trypomastigote viability (T. cruzi trypomastigotes; 24 h, 0.195312 µM, untreated 165925): 163102 RLU
- RLU Average, trypomastigote viability (T. cruzi trypomastigotes; 24 h, 0.390625 µM, untreated 165925): 158420 RLU
- RLU Average, trypomastigote viability (T. cruzi trypomastigotes; 24 h, 0.78125 µM, untreated 165925): 147331 RLU
- RLU Average, trypomastigote viability (T. cruzi trypomastigotes; 24 h, 1.5625 µM, untreated 165925): 130562 RLU
- RLU Average, trypomastigote viability (T. cruzi trypomastigotes; 24 h, 3.125 µM, untreated 165925): 103284 RLU
- RLU Average, trypomastigote viability (T. cruzi trypomastigotes; 24 h, 6.25 µM, untreated 165925): 45263 RLU
- RLU Average, trypomastigote viability (T. cruzi trypomastigotes; 24 h, 12.5 µM, untreated 165925): 26648 RLU
- RLU Average, trypomastigote viability (T. cruzi trypomastigotes; 24 h, 25 µM, untreated 165925): 23620 RLU
- RLU Average, trypomastigote viability (T. cruzi trypomastigotes; 24 h, 50 µM, untreated 165925): 23277 RLU
- RLU Average, trypomastigote viability (T. cruzi trypomastigotes; 48 h, 0.0976562 µM, untreated 141819): 140243 RLU
- RLU Average, trypomastigote viability (T. cruzi trypomastigotes; 48 h, 0.195312 µM, untreated 141819): 138438 RLU
- RLU Average, trypomastigote viability (T. cruzi trypomastigotes; 48 h, 0.390625 µM, untreated 141819): 137289 RLU
- RLU Average, trypomastigote viability (T. cruzi trypomastigotes; 48 h, 0.78125 µM, untreated 141819): 133179 RLU
- RLU Average, trypomastigote viability (T. cruzi trypomastigotes; 48 h, 1.5625 µM, untreated 141819): 131008 RLU
- RLU Average, trypomastigote viability (T. cruzi trypomastigotes; 48 h, 3.125 µM, untreated 141819): 112009 RLU
- RLU Average, trypomastigote viability (T. cruzi trypomastigotes; 48 h, 6.25 µM, untreated 141819): 31326 RLU
- RLU Average, trypomastigote viability (T. cruzi trypomastigotes; 48 h, 12.5 µM, untreated 141819): 8227 RLU
- RLU Average, trypomastigote viability (T. cruzi trypomastigotes; 48 h, 25 µM, untreated 141819): 5426 RLU
- RLU Average, trypomastigote viability (T. cruzi trypomastigotes; 48 h, 50 µM, untreated 141819): 4626 RLU
- RLU Average, trypomastigote viability (T. cruzi trypomastigotes; 72 h, 0.0976562 µM, untreated 100126): 97547 RLU
- RLU Average, trypomastigote viability (T. cruzi trypomastigotes; 72 h, 0.195312 µM, untreated 100126): 99515 RLU
- RLU Average, trypomastigote viability (T. cruzi trypomastigotes; 72 h, 0.390625 µM, untreated 100126): 99635 RLU
- RLU Average, trypomastigote viability (T. cruzi trypomastigotes; 72 h, 0.78125 µM, untreated 100126): 98868 RLU
- RLU Average, trypomastigote viability (T. cruzi trypomastigotes; 72 h, 1.5625 µM, untreated 100126): 97232 RLU
- RLU Average, trypomastigote viability (T. cruzi trypomastigotes; 72 h, 3.125 µM, untreated 100126): 91895 RLU
- RLU Average, trypomastigote viability (T. cruzi trypomastigotes; 72 h, 6.25 µM, untreated 100126): 17556 RLU
- RLU Average, trypomastigote viability (T. cruzi trypomastigotes; 72 h, 12.5 µM, untreated 100126): 4224 RLU
- RLU Average, trypomastigote viability (T. cruzi trypomastigotes; 72 h, 25 µM, untreated 100126): 2493 RLU
- RLU Average, trypomastigote viability (T. cruzi trypomastigotes; 72 h, 50 µM, untreated 100126): 1583 RLU
- EC50 (T. cruzi trypomastigotes; 24 h): 3.29 µM
- EC50 (T. cruzi trypomastigotes; 48 h): 4.45 µM
- EC50 (T. cruzi trypomastigotes; 72 h): 4.77 µM
- EC90/EC50 (T. cruzi trypomastigotes; 24 h): 3.20
- Hill slope (T. cruzi trypomastigotes; 24 h): 2.11
- EC90/EC50 (T. cruzi trypomastigotes; 48 h): 1.72
- Hill slope (T. cruzi trypomastigotes; 48 h): 4.10
- Hill slope (T. cruzi trypomastigotes; 48 h, listed as C): 4.1
- EC90/EC50 (T. cruzi trypomastigotes; 48 h, listed as strasseriolide C): 1.7
- EC90/EC50 (T. cruzi trypomastigotes; 72 h): 1.42
- Hill slope (T. cruzi trypomastigotes; 72 h): 6.31
- Hill slope (T. cruzi trypomastigotes; 72 h, listed as C): 6.3
- EC90/EC50 (T. cruzi trypomastigotes; 72 h, listed as strasseriolide C): 1.4
- EC90/EC50 [1]: 3.78
- Hill slope [1]: 1.70
